Laboratory results published in US6534090B2, “Oral osmotic controlled drug delivery system for a sparingly soluble drug” (Sun Pharmaceutical Advanced Research Centre Limited, priority 2001, dated 2003).

Experiments:
[1] = cited from earlier work
[2] = below 4 μg/ml ineffective, above 12 μg/ml side-effects likely; cited from earlier work
[3] = Comparative experiments: anhydrous carbamazepine suspended in water or aqueous solution of a crystal habit modifier; type: physicochemical

## NC(=O)N1c2ccccc2C=Cc2ccccc21 [carbamazepine, 5H-dibenz-[b,f]azepine-5-carboxamide]
[1]
  solubility in water: sparingly soluble in water
[2]
  therapeutic range (blood levels): 4 to 12 µg/mL
[3]; in the presence of hydroxypropyl methylcellulose
  conversion of anhydrous carbamazepine microcrystals: did not convert to the dihydrate crystals
[3]; in water, absence of a crystal habit modifier, long discrete needles that cluster
  length of crystals formed from anhydrous carbamazepine: ≤ 500 μm
